Measurements from the NIST ThermoML archive (doi:10.1021/je0340699).
Numbers after ± are expanded uncertainties.

Experiment: molar heat capacity at saturation pressure
Conditions: Liquid, Large sample (1 g) DSC

CCOC(C)(C)C [2-ethoxy-2-methylpropane]
Conditions	molar heat capacity [J/K/mol]
277.14 K	211.4 ± 3.3
281.17 K	213.3 ± 3.3
283.15 K	214.2 ± 3.3
285.16 K	215.2 ± 3.3
287.15 K	216 ± 3.3
289.16 K	216.9 ± 3.4
291.14 K	217.7 ± 3.4
293.14 K	218.5 ± 3.4
295.15 K	219.3 ± 3.4
297.14 K	220.1 ± 3.4
299.15 K	220.9 ± 3.4
301.14 K	221.7 ± 3.4
303.16 K	222.6 ± 3.4
305.14 K	223.3 ± 3.5
307.15 K	224.2 ± 3.5
309.14 K	225.3 ± 3.5
311.15 K	225.9 ± 3.5
313.14 K	226.7 ± 3.5
315.16 K	227.6 ± 3.5
317.14 K	228.6 ± 3.5
319.15 K	229.5 ± 3.6
321.14 K	230.1 ± 3.6
323.15 K	231 ± 3.6
325.14 K	231.7 ± 3.6
327.16 K	232.6 ± 3.6
329.15 K	233.3 ± 3.6
331.16 K	234.2 ± 3.6
333.15 K	235.1 ± 3.6
335.16 K	235.9 ± 3.7
338.16 K	237.1 ± 3.7
339.14 K	237.4 ± 3.7
341.15 K	238.1 ± 3.7

CCC(C)(C)OC [2-methoxy-2-methylbutane]
Conditions	molar heat capacity [J/K/mol]
279.16 K	206.8 ± 3.2
281.15 K	207.7 ± 3.2
283.16 K	208.5 ± 3.2
285.16 K	209.3 ± 3.2
287.16 K	210.2 ± 3.3
289.16 K	211 ± 3.3
291.17 K	211.7 ± 3.3
293.15 K	212.5 ± 3.3
295.15 K	213.5 ± 3.3
297.16 K	214.5 ± 3.3
299.16 K	215.3 ± 3.3
301.14 K	216.1 ± 3.3
303.14 K	216.9 ± 3.4
305.15 K	217.8 ± 3.4
307.15 K	218.3 ± 3.4
309.15 K	219.1 ± 3.4
311.16 K	220.1 ± 3.4
313.16 K	220.6 ± 3.4
315.13 K	221.3 ± 3.4
317.13 K	222.1 ± 3.4
319.14 K	222.8 ± 3.5
321.14 K	223.5 ± 3.5
323.14 K	224.5 ± 3.5
325.15 K	225 ± 3.5
327.16 K	225.7 ± 3.5
329.16 K	226.7 ± 3.5
331.17 K	227.4 ± 3.5
333.13 K	228.1 ± 3.5
335.14 K	228.9 ± 3.5
337.14 K	229.7 ± 3.6
339.15 K	230.4 ± 3.6
341.16 K	231 ± 3.6
343.17 K	231.9 ± 3.6
345.14 K	232.6 ± 3.6
347.14 K	233.5 ± 3.6
349.15 K	234.3 ± 3.6
351.15 K	234.9 ± 3.6
353.16 K	235.7 ± 3.7
355.14 K	236.4 ± 3.7

COC(C)(C)C [2-methoxy-2-methylpropane]
Conditions	molar heat capacity [J/K/mol]
277.15 K	180.9 ± 2.8
279.15 K	181.4 ± 2.8
281.16 K	182.3 ± 2.8
283.15 K	183.1 ± 2.8
285.15 K	183.8 ± 2.8
287.14 K	184.4 ± 2.9
289.16 K	185.3 ± 2.9
291.15 K	186 ± 2.9
293.16 K	186.8 ± 2.9
295.15 K	187.7 ± 2.9
297.14 K	188.3 ± 2.9
299.14 K	189 ± 2.9
301.16 K	189.7 ± 2.9
303.16 K	190.4 ± 3
305.15 K	191.1 ± 3
307.15 K	191.8 ± 3
309.16 K	192.6 ± 3
311.16 K	193.2 ± 3
313.15 K	193.9 ± 3
315.15 K	194.6 ± 3
317.14 K	195.2 ± 3
319.16 K	196 ± 3
321.15 K	196.5 ± 3
323.15 K	197.3 ± 3.1
325.15 K	198 ± 3.1

CC(C)OC(C)C [diisopropyl ether]
Conditions	molar heat capacity [J/K/mol]
277.17 K	207.7 ± 3.2
279.16 K	208.5 ± 3.2
281.15 K	209.4 ± 3.2
283.14 K	210.4 ± 3.3
285.16 K	211.3 ± 3.3
287.16 K	212.2 ± 3.3
289.15 K	213.1 ± 3.3
291.17 K	214 ± 3.3
293.15 K	214.8 ± 3.3
295.16 K	215.5 ± 3.3
297.16 K	216.3 ± 3.4
299.16 K	217.2 ± 3.4
301.16 K	218 ± 3.4
303.15 K	218.7 ± 3.4
305.14 K	219.5 ± 3.4
307.14 K	220.3 ± 3.4
309.16 K	221 ± 3.4
311.15 K	222 ± 3.4
313.15 K	222.7 ± 3.5
315.15 K	223.6 ± 3.5
317.17 K	224.4 ± 3.5
319.16 K	225.1 ± 3.5
321.15 K	225.9 ± 3.5
323.14 K	226.7 ± 3.5
325.14 K	227.4 ± 3.5
327.13 K	228.3 ± 3.5
329.16 K	229 ± 3.5
331.15 K	229.9 ± 3.6
333.15 K	230.5 ± 3.6
335.14 K	231.4 ± 3.6
337.14 K	232.2 ± 3.6
